According to patent publication US4952580A, “Pesticidal polyhaloalkene derivatives” (priority 1988, dated 1990):
Where two headings read alike, the source gives them in different places.

Key:
[1] = test system: root-knot nematode (Meloidogyne incognita); assay: Initial Root-Knot Nematicidal Activity; type: in vivo; conditions: 336 h, read-out: Percent Control; for pest or weed control at 0.313 ppm: Table 2, Application Rate 0.313 ppm; for pest or weed control at 0.625 ppm: Table 2, Application Rate 0.625 ppm; for pest or weed control at 1.25 ppm: Table 2, Application Rate 1.25 ppm; for pest or weed control at 5 ppm: Table 2, Application Rate 5.0 ppm; for pest or weed control at 10 ppm: Table 2, Application Rate 10.0 ppm
Summary of the method: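 Compound incorporated into Meloidogyne incognita-infested soil at 10 ppm to 0.078 ppm, then planted with tomato or cucumber seedlings. Root galling scored two weeks after planting as a knot index and converted to percent control, given as averages.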

root-knot nematode [2] = assay: Residual Root-Knot Nematicidal Activity; type: in vivo, Meloidogyne incognita; conditions: Table 3, read-out: Percent Control
Protocol: (§1) Compounds of this invention were tested as follows for nematicidal and anthelmintic activity as dust formulations (initial and residual activity) and as acetone/water formulations (systemic activity). The formulations are described above.
The ability of nematicidal compounds of the invention to control root-knot nematode infestations in soil over a period of time after treatment was evaluated. Dust formulations of test compound (5%) were incorporated into soil samples at test compound rates of 5 and 10 ppm. Subsequently, the treated soil samples were inoculated with nematode inoculum at weekly intervals, and Knot Index and Percent Control determined on seedlings planted in the soil samples. Specifically, soil treated with test compound was placed in 7.6 cm diameter fiber pots and stored in a greenhouse. At one, two and four weeks post-treatment, the appropriate number of pots was infested with root-knot nematode eggs and larvae. A cucumber or tomato seedling was planted in each pot and evaluated approximately two weeks after the soil infestation to obtain the test results reported in Tables 3 and 3a appended.

stunt nematode = assay: Stunt Nematode Test; type: in vivo; conditions: 672 h, Table 4, read-out: Percent Control; for pest or weed control at 5 ppm: rate 5 ppm
Protocol: as §1
The procedure was substantially the same as in the […] seedling, with subsequent inoculation of the soil with combined larvae and adult stunt nematodes. The samples were evaulated approximately four weeks after infestation. […] "Percent control" means the difference between average population counts between untreated and treated samples, divided by average population count of untreated sample, multiplied by 100.

lesion nematode = assay: Lesion Nematode Test; type: in vivo; conditions: Table 5, read-out: Percent Control
Summary of the method: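 Run as the stunt nematode test but on pea seedlings; compounds applied as dust formulations (initial and residual activity) or acetone/water formulations (systemic activity), with untreated samples as reference. Percent control derived by formula.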

cyst nematode = assay: Cyst Nematode Test; type: in vivo; conditions: Table 6, rate 5 ppm, read-out: Percent Control
Protocol: as §1
The procedures was substantially the same as described in the stunt nematode test except soybean seedlings were used. "Percent Control" (Table 6 appended) is as defined in the stunt nematode test results.

root-knot nematode [3] = assay: Soil Mobility against root-knot nematode; type: in vivo, Meloidogyne incognita; conditions: 336 h; for pest or weed control at 0.313 ppm: Table 7, 0.313 ppm; for pest or weed control at 0.625 ppm: Table 7, 0.625 ppm; for pest or weed control at 1.25 ppm: Table 7, 1.25 ppm; for pest or weed control at 2.5 ppm: Table 7, 2.5 ppm; for pest or weed control at 5 ppm: Table 7, 5 ppm; for pest or weed control at 10 ppm: Table 7, 10 ppm
Summary of the method: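 Soil mobility of the nematicidal test material was evaluated by placing treated, nematode-infested soil in 8 cm plastic pots stacked above two or more pots of untreated infested soil, each containing a 10 cm^3 sand layer and filter paper discs. Fifteen cm of water was dripped through, pots drained 16-18 hours, then were planted with cucumber or tomato seedlings and scored for Percent Control.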

[4] = Table 2, Application Rate 2.5 ppm
[5] = 168 h, inoculation 1 week after treatment
[6] = 336 h, inoculation 2 weeks after treatment
[7] = 672 h, inoculation 4 weeks after treatment
[8] = Bottom container, read-out: Percent Control
[9] = Middle container, read-out: Percent Control
[10] = Top container, read-out: Percent Control
[11] = Table 7, 30 ppm, Bottom container, read-out: Percent Control
[12] = Table 7, 30 ppm, Top container, read-out: Percent Control
[13] = read-out: Percent Control, Table 7, 30 ppm, Middle container

SMILES: FC(F)=C(F)CCSC1=NCCS1 [Compound 1, 2-(3,4,4-trifluoro-3-butenylthio)-4,5-dihydrothiazole]
- pest or weed control at 0.078 ppm ([1]; Table 2, Application Rate 0.078 ppm): 56%
- pest or weed control at 0.313 ppm [1]: 99%
- pest or weed control at 0.625 ppm [1]: 100%
- pest or weed control at 1.25 ppm [1]: 99%
- pest or weed control at 2.5 ppm [1, 4]: 99%
- pest or weed control at 5 ppm [1]: 99%
- pest or weed control at 10 ppm [1]: 100%
- pest or weed control at 0.156 ppm [1]: 95%
- pest or weed control at 5 ppm (root-knot nematode [2]; [5]): 99%
- pest or weed control at 10 ppm (root-knot nematode [2]; [5]): 98%
- pest or weed control at 5 ppm (root-knot nematode [2]; [6]): 63%
- pest or weed control at 5 ppm (root-knot nematode [2]; [7]): 25%
- pest or weed control at 5 ppm (stunt nematode): 30%
- pest or weed control at 10 ppm (stunt nematode; rate 10 ppm): 61%
- pest or weed control at 2.5 ppm (lesion nematode; rate 2.5 ppm): 0%
- pest or weed control at 5 ppm (cyst nematode): 94%
- pest or weed control at 5 ppm (cyst nematode; whole cysts rather than homogenized cysts): 79%
- pest or weed control at 0.313 ppm (root-knot nematode [3]; [8]): 25%
- pest or weed control at 0.313 ppm (root-knot nematode [3]; [9]): 75%
- pest or weed control at 0.313 ppm (root-knot nematode [3]; [10]): 77%
- pest or weed control at 0.625 ppm (root-knot nematode [3]; [8]): 77%
- pest or weed control at 0.625 ppm (root-knot nematode [3]; [9]): 98%
- pest or weed control at 0.625 ppm (root-knot nematode [3]; [10]): 97%
- pest or weed control at 1.25 ppm (root-knot nematode [3]; [8]): 96%
- pest or weed control at 1.25 ppm (root-knot nematode [3]; [9]): 99%
- pest or weed control at 1.25 ppm (root-knot nematode [3]; [10]): 100%
- pest or weed control at 2.5 ppm (root-knot nematode [3]; [8]): 100%
- pest or weed control at 2.5 ppm (root-knot nematode [3]; [9]): 100%
- pest or weed control at 2.5 ppm (root-knot nematode [3]; [10]): 100%
- pest or weed control at 5 ppm (root-knot nematode [3]; [8]): 99%
- pest or weed control at 5 ppm (root-knot nematode [3]; [9]): 98%
- pest or weed control at 5 ppm (root-knot nematode [3]; [10]): 100%
- pest or weed control at 10 ppm (root-knot nematode [3]; container 1 (Top), read-out: Percent Control): 100%
- pest or weed control at 10 ppm (root-knot nematode [3]; container 2, read-out: Percent Control): 100%
- pest or weed control at 10 ppm (root-knot nematode [3]; container 3, read-out: Percent Control): 100%
- pest or weed control at 10 ppm (root-knot nematode [3]; container 4, read-out: Percent Control): 99%
- pest or weed control at 10 ppm (root-knot nematode [3]; container 5, read-out: Percent Control): 97%
- pest or weed control at 10 ppm (root-knot nematode [3]; container 6 (Bottom), read-out: Percent Control): 42%
- pest or weed control at 30 ppm (root-knot nematode [3]; [11]): 85%
- pest or weed control at 30 ppm (root-knot nematode [3]; [12]): 97%
- pest or weed control at 30 ppm (root-knot nematode [3]; [13]): 95%

SMILES: CSc1nnc(SCCC(F)=C(F)F)s1 [Compound 2, 2-methylthio-5-(3,4,4-trifluoro-3-butenylthio)-1,3,4-thiadiazole]
- pest or weed control at 0.313 ppm [1]: 38%
- pest or weed control at 0.625 ppm [1]: 84%
- pest or weed control at 1.25 ppm [1]: 86%
- pest or weed control at 2.5 ppm [1, 4]: 96%
- pest or weed control at 5 ppm [1]: 96%
- pest or weed control at 10 ppm [1]: 100%
- pest or weed control at 2.5 ppm [1]: 95%
- pest or weed control at 5 ppm (root-knot nematode [2]; [5]): 98%
- pest or weed control at 10 ppm (root-knot nematode [2]; [5]): 77%
- pest or weed control at 5 ppm (root-knot nematode [2]; [6]): 38%
- pest or weed control at 10 ppm (root-knot nematode [2]; [6]): 56%
- pest or weed control at 5 ppm (root-knot nematode [2]; [7]): 42%
- pest or weed control at 10 ppm (root-knot nematode [2]; [7]): 69%
- pest or weed control at 5 ppm (stunt nematode): 72%
- pest or weed control at 5 ppm (lesion nematode; rate 5 ppm): 0%
- pest or weed control at 5 ppm (cyst nematode): 70%
- pest or weed control at 30 ppm (root-knot nematode [3]; [11]): 25%
- pest or weed control at 30 ppm (root-knot nematode [3]; [12]): 42%
- pest or weed control at 30 ppm (root-knot nematode [3]; [13]): 33%
